pEC50, pIC50: −log10 of the molar value. A value given as a limit tells only on which side of the number the result lay.

As a reminder, the pIC50 is the IC50 on a negative log10 scale, so that one unit is a factor of ten. A high value points to a small IC50. For orientation: pEC50 means the EC50 on a negative log10 scale, so that one unit is a factor of ten. High values mean a low EC50, low ones a high EC50.

Experiment [1] addresses T1, TLR2 (Homo sapiens, UniProt O60603). The experiment is described as follows: TLR2 antagonist screening assay, HEK Blue hTLR2 cells, competition with diprovocim. It is filed as cell-based. More on the design: host or cells: HEK Blue hTLR2 cells. From the text:
TLRs signal through ligand-mediated dimerization or multimerization. TLR2 may partner with TLR1 or TLR6 to produce an agonist signal. Compounds that prevent agonist signaling, antagonists, may interfere with proper dimerization or with downstream signaling. The following assay was developed to identify and characterize novel TLR2 antagonists.
The in vitro TLR2 assay consists of a cell line that responds to TLR2 engagement by producing a factor that elicits a color change in the culture media and can be readily measured by various colorimetric detection methods. This assay enables the identification of existing and novel compounds that engage TLR2. Treating reporter cells with putative TLR2 antagonists will diminish the reporter response to TLR2 agonists.
TLR2 antagonists were screened for TLR2 binding and blocking with a competition assay. […] The assay was performed with Invivogen HEK Blue cells, which express the human TLR2 receptor as well as NFkB-inducible secreted Alkaline Phosphatase. Alkaline Phosphatase activity was proportional to TLR2 activation, and thus served as a colorimetric reporter.
HEK Blue hTLR2 cells (Invivogen) were grown in DMEM with 10% FBS (Seradigm). Cells were seeded at 40,000 cells/well in 96-well plates and incubated overnight to adhere. Media was replaced with 200 uL/well HEK Blue Detection Medium (Invivogen). […] Cells incubated for 16-24 hours, then absorbance at 600 nm was read on a SpectraMax M2 (Molecular Devices). […] Four parameter dose response curves were fit according to the following model, and IC50 values were reported: Y=Bottom+(Top-Bottom)/(1+(IC50/X)^HillSlope)
Where X is the antagonist concentration, Y is the normalized absorbance, Top and Bottom are the plateaus, IC50 is the concentration at half-maximal inhibition, and HillSlope is the slope factor.
• 1. HEK-Blue TLR2 cells are diluted in complete DME culture medium and plated into 96-well plates at 40,000 cells per well and cultured overnight. • 2. After 16-24 hours in culture, the media is removed and replaced with 200 microliters per well of HEK-Blue Detection media. • 3. TLR2 antagonists are diluted 100-fold from DMSO stocks into each well, yielding a final DMSO concentration of 1% in all wells. Reporter cells are treated for 1-2 hours, then treated with TLR2 agonist diluted to the EC50-70 concentration. • 4. Treated cells are cultured overnight and the following day are assayed in plate reader for Absorbance at 600 nanometer.

In experiment [2] the target is T1, TLR2. The experiment is described as follows: TLR2 agonist screening assay, HEK-Blue TLR2 reporter cell line (NF-kB-driven SEAP, absorbance at 600 nm). It is filed as cell-based. Conditions: HEK-Blue TLR2 reporter cells, agonist mode. Details: host or cells: HEK-293 (HEK-Blue TLR2 reporter cell line). The method, boiled down: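 EC50 values come from dilution series of agonist on TLR2-transfected HEK-293 reporter cells carrying an NF-kB-SEAP construct. Cells sat overnight with compound in substrate-containing Detection medium at 1% DMSO, and secreted phosphatase activity was quantified as absorbance at 600 nm.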

T1 sequence (O60603 21-784): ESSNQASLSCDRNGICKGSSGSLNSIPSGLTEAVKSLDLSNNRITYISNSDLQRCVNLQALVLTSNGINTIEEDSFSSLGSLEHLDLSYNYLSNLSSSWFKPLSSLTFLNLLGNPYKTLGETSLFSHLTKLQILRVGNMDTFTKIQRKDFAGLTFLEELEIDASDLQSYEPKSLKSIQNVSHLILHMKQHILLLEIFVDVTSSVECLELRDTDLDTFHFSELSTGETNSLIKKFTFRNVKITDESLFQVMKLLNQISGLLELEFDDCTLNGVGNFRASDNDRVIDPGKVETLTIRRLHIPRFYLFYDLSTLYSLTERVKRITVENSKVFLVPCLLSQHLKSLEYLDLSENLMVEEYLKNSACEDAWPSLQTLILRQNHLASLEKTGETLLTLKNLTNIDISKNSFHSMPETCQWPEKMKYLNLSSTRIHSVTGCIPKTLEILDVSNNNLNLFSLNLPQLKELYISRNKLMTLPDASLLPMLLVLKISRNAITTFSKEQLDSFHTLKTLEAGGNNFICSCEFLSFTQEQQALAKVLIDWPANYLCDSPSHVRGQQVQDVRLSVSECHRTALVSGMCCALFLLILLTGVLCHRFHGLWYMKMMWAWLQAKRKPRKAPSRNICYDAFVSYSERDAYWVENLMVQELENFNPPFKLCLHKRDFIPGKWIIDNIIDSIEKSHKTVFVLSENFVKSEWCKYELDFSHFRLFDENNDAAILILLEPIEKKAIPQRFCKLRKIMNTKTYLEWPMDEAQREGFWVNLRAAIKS

For the compound `CCCCCCCC(=O)N1CCN(S(=O)(=O)c2ccc(C(=O)N3C[C@@H](C(=O)N[C@H]4C[C@@H]4c4ccccc4)[C@H](C(=O)N[C@H]4C[C@@H]4c4ccccc4)C3)cc2)C[C@H]1C(=O)NCCCCCC` [Compound 160, (3S,4S)-1-(4-(((S)-3-(hexylcarbamoyl)-4-octanoylpiperazin-1-yl)sulfonyl)benzoyl)-N3,N4-bis((1S,2R)-2-phenylcyclopropyl)pyrrolidine-3,4-dicarboxamide], the pIC50 at TLR2 [1] is 6.00 to 6.45. At TLR2 [2] (average of all runs (Table 4)), this compound had a pEC50 of less than 6.00.

At TLR2 [1], `CCCCCCCCCCCCCCN1CC(=O)N[C@@H](CNC(=O)c2ccc(C(=O)N3C[C@@H](C(=O)N[C@H]4C[C@@H]4c4ccccc4)[C@H](C(=O)N[C@H]4C[C@@H]4c4ccccc4)C3)cc2)C1=O` [Compound 177, (3S,4S)-1-(4-((((S)-3,6-dioxo-4-tetradecylpiperazin-2-yl)methyl)carbamoyl)benzoyl)-N3,N4-bis((1S,2R)-2-phenylcyclopropyl)pyrrolidine-3,4-dicarboxamide] showed a pIC50 of 6.46 to 9.00. Also, the pEC50 on TLR2 [2] (average of all runs (Table 4)) was less than 6.00.

`CCCCCCCC(=O)N1CCN(S(=O)(=O)c2ccc(C(=O)N3C[C@@H](C(=O)N[C@H]4C[C@@H]4c4ccccc4)[C@H](C(=O)N[C@H]4C[C@@H]4c4ccccc4)C3)cc2)CC1C(=O)NCCCCCC` (stereo partly shown) [Compound 053] had a pIC50 at TLR2 [1] of 6.00 to 6.45. The compound further showed a pEC50 at TLR2 [2] (average of all runs (Table 3)) of less than 6.00.

At TLR2 [1], `O=C(N[C@H]1C[C@@H]1c1ccccc1)[C@@H]1CN(C(=O)C23CCC(C(=O)N4C[C@@H](C(=O)N[C@H]5C[C@@H]5c5ccccc5)[C@H](C(=O)N[C@H]5C[C@@H]5c5ccccc5)C4)(CC2)CC3)C[C@H]1C(=O)N[C@H]1C[C@@H]1c1ccccc1` [Compound 077, (3S,3'S,4S,4'S)-1,1′-(bicyclo [2.2.2]octane-1,4-dicarbonyl) bis (N3,N4-bis((1S,2R)-2-phenylcyclopropyl)pyrrolidine-3,4-dicarboxamide)] gave a pIC50 of 6.00 to 6.45. The compound also had a pEC50 at TLR2 [2] (average of all runs (Table 4)) of less than 6.00.

For `CCCCCCN1C(=O)[C@H](CNC(=O)c2ccc(C(=O)N3C[C@@H](C(=O)N[C@H]4C[C@@H]4c4ccccc4)[C@H](C(=O)N[C@H]4C[C@@H]4c4ccccc4)C3)cc2)NC(=O)[C@@H]1CCCCC` [Compound 176, (3S,4S)-1-(4-((((2S,5S)-4-hexyl-3,6-dioxo-5-pentylpiperazin-2-yl)methyl)carbamoyl)benzoyl)-N3,N4-bis((1S,2R)-2-phenylcyclopropyl)pyrrolidine-3,4-dicarboxamide], the pIC50 at TLR2 [1] was 6.46 to 9.00. Besides, on TLR2 [2] (average of all runs (Table 4)), the pEC50 is less than 6.00.

Turning to `CCCCCCCCCCCCCCNC(=O)[C@@H]1CN(C(=O)c2ccc(C(=O)N3C[C@@H](C(=O)N[C@H]4C[C@@H]4c4ccccc4)[C@H](C(=O)N[C@H]4C[C@@H]4c4ccccc4)C3)cc2)CCN1C(C)=O` [Compound 162, (3S,4S)-1-(4-((S)-4-acetyl-3-(tetradecylcarbamoyl)piperazine-1-carbonyl)benzoyl)-N3,N4-bis((1S,2R)-2-phenylcyclopropyl) pyrrolidine-3,4-dicarboxamide], the negative logarithm of the IC50 (pIC50) at TLR2 [1] is 6.46 to 9.00. The pEC50 at TLR2 [2] (average of all runs (Table 4)) was less than 6.00.

`O=C(N[C@H]1C[C@@H]1c1ccccc1)[C@@H]1CN(C(=O)c2ccc(C(=O)N3CC[C@@H](n4cnc(-c5ccc(C(F)(F)F)cc5)c4)C3)cc2)C[C@H]1C(=O)N[C@H]1C[C@@H]1c1ccccc1` [Compound 277] showed a pIC50 at TLR2 [1] of 6.46 to 9.00. The pEC50 at TLR2 [2] (average of all runs (Table 4)) was less than 6.00.

As for `CCCCCCCCCCCCCCNC(=O)C1CN(C(=O)c2ccc(C(=O)N3C[C@@H](C(=O)N[C@H]4C[C@@H]4c4ccccc4)[C@H](C(=O)N[C@H]4C[C@@H]4c4ccccc4)C3)cc2)CCN1C(C)=O` (stereo partly shown) [Compound 024], on TLR2 [1], the pIC50 is 6.00 to 6.45. The compound also showed a pEC50 at TLR2 [2] (average of all runs (Table 3)) of less than 6.00.

At TLR2 [1], `CCCCCCCC(=O)N1CCCN(S(=O)(=O)c2ccc(C(=O)N3C[C@@H](C(=O)N[C@H]4C[C@@H]4c4ccccc4)[C@H](C(=O)N[C@H]4C[C@@H]4c4ccccc4)C3)cc2)CC1C(=O)NCCCCCC` (single isomer, unassigned) [Compound 203, (3S,4S)-1-(4-(((R*)-3-(hexylcarbamoyl)-4-octanoyl-1,4-diazepan-1-yl)sulfonyl)benzoyl)-N3,N4-bis((1S,2R)-2-phenylcyclopropyl)pyrrolidine-3,4-dicarboxamide] gave a pIC50 of 6.00 to 6.45. The pEC50 at TLR2 [2] (average of all runs (Table 4)) is less than 6.00.

As to `CCCCCCCCCCCCCCNC(=O)C1CN(C(=O)c2ccc(C(=O)N3C[C@@H](C(=O)N[C@H]4C[C@@H]4c4ccccc4)[C@H](C(=O)N[C@H]4C[C@@H]4c4ccccc4)C3)cc2)C1` [Compound 007], the negative logarithm of the IC50 (pIC50) at TLR2 [1] was 6.00 to 6.45. At TLR2 [2] (average of all runs (Table 3)), the pEC50 was less than 6.00.

The compound `CCCCCCCCCCCCCCC(=O)NC1CCN(C(=O)c2ccc(C(=O)N3C[C@@H](C(=O)N[C@H]4C[C@@H]4c4ccccc4)[C@H](C(=O)N[C@H]4C[C@@H]4c4ccccc4)C3)cc2)CC1` [Compound 008] showed a negative-log IC50 (pIC50) at TLR2 [1] of 6.00 to 6.45. At TLR2 [2] (average of all runs (Table 3)), this compound gave a pEC50 of less than 6.00.
